Assay results reported in PubChem BioAssay (NCI).
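Method: 48-hour compound exposure of cells in 96-well plates, five concentrations, linear interpolation of endpoints. GI50: concentration for 50% inhibition of growth. TGI marks complete inhibition of growth.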

Columns and labels:
Assay in all cases: inhibition of tumour cell growth, NCI panel, 48 h
SF-268 CNS = tested on: SF-268 CNS
A549 NSCLC = tested on: A549 NSCLC
RPMI-8226 leukemia = tested on: RPMI-8226 leukemia
MDA-MB-231 breast = tested on: MDA-MB-231 breast
HL-60(TB) leukemia = tested on: HL-60(TB) leukemia
M14 melanoma = tested on: M14 melanoma
SNB-19 CNS = tested on: SNB-19 CNS
CAKI-1 renal = tested on: CAKI-1 renal
HOP-92 NSCLC = tested on: HOP-92 NSCLC
HOP-62 NSCLC = tested on: HOP-62 NSCLC
HCT-15 colon = tested on: HCT-15 colon
K-562 leukemia = tested on: K-562 leukemia
SF-295 CNS = tested on: SF-295 CNS
KM12 colon = tested on: KM12 colon
LOX IMVI melanoma = tested on: LOX IMVI melanoma
HS 578T breast = tested on: HS 578T breast
UACC-62 melanoma = tested on: UACC-62 melanoma
UO-31 renal = tested on: UO-31 renal
EKVX NSCLC = tested on: EKVX NSCLC
T-47D breast = tested on: T-47D breast
OVCAR-3 ovarian = tested on: OVCAR-3 ovarian
NCI-H460 lung = tested on: NCI-H460 lung
CCRF-CEM leukemia = tested on: CCRF-CEM leukemia
OVCAR-5 ovarian = tested on: OVCAR-5 ovarian
OVCAR-8 ovarian = tested on: OVCAR-8 ovarian
OVCAR-4 ovarian = tested on: OVCAR-4 ovarian
SK-MEL-2 melanoma = tested on: SK-MEL-2 melanoma
SW-620 colon = tested on: SW-620 colon
SR leukemia = tested on: SR leukemia
SF-539 CNS = tested on: SF-539 CNS
MDA-MB-435 = tested on: MDA-MB-435
MCF7 breast = tested on: MCF7 breast
UACC-257 melanoma = tested on: UACC-257 melanoma
MDA-MB-468 breast = tested on: MDA-MB-468 breast
ACHN renal = tested on: ACHN renal
RXF 393 renal = tested on: RXF 393 renal
NCI-H23 lung = tested on: NCI-H23 lung
NCI/ADR-RES ovarian = tested on: NCI/ADR-RES ovarian
786-0 renal = tested on: 786-0 renal
HT29 colon = tested on: HT29 colon
NCI-H226 lung = tested on: NCI-H226 lung
SK-MEL-28 melanoma = tested on: SK-MEL-28 melanoma
IGROV1 ovarian = tested on: IGROV1 ovarian
TK-10 renal = tested on: TK-10 renal
COLO 205 colon = tested on: COLO 205 colon
SN12C renal = tested on: SN12C renal
HCC-2998 colon = tested on: HCC-2998 colon
SK-MEL-5 melanoma = tested on: SK-MEL-5 melanoma
MALME-3M melanoma = tested on: MALME-3M melanoma
NCI-H522 lung = tested on: NCI-H522 lung
U251 CNS = tested on: U251 CNS
A498 renal = tested on: A498 renal
HCT-116 colon = tested on: HCT-116 colon
MOLT-4 leukemia = tested on: MOLT-4 leukemia
PC-3 prostate = tested on: PC-3 prostate
DU-145 prostate = tested on: DU-145 prostate
SNB-75 CNS = tested on: SNB-75 CNS
BT-549 breast = tested on: BT-549 breast

O=C(NO)c1ccc(-c2nc3ccc4[nH]ncc4c3c3c2CCCC3)cc1
GI50 (SF-268 CNS): 298 nM | TGI (SF-268 CNS): 1600 nM | GI50 (A549 NSCLC): 671 nM | TGI (A549 NSCLC): > 100000 nM | GI50 (RPMI-8226 leukemia): 1650 nM | TGI (RPMI-8226 leukemia): > 44600 nM | GI50 (MDA-MB-231 breast): 350 nM | TGI (MDA-MB-231 breast): 1490 nM | GI50 (HL-60(TB) leukemia): 339 nM | TGI (HL-60(TB) leukemia): 2980 nM | GI50 (M14 melanoma): 415 nM | TGI (M14 melanoma): 1780 nM | GI50 (SNB-19 CNS): 288 nM | TGI (SNB-19 CNS): 1740 nM | GI50 (CAKI-1 renal): 260 nM | TGI (CAKI-1 renal): 6810 nM | GI50 (HOP-92 NSCLC): 426 nM | TGI (HOP-92 NSCLC): 6110 nM | GI50 (HOP-62 NSCLC): 253 nM | TGI (HOP-62 NSCLC): 5210 nM | GI50 (HCT-15 colon): 250 nM | TGI (HCT-15 colon): 8570 nM | GI50 (K-562 leukemia): 495 nM | TGI (K-562 leukemia): > 100000 nM | GI50 (SF-295 CNS): 880 nM | TGI (SF-295 CNS): 9760 nM | GI50 (KM12 colon): 391 nM | TGI (KM12 colon): 13700 nM | GI50 (LOX IMVI melanoma): 306 nM | TGI (LOX IMVI melanoma): 1320 nM | GI50 (HS 578T breast): 191 nM | TGI (HS 578T breast): 1300 nM | GI50 (UACC-62 melanoma): 237 nM | TGI (UACC-62 melanoma): 1450 nM | GI50 (UO-31 renal): 599 nM | TGI (UO-31 renal): 8480 nM | GI50 (EKVX NSCLC): 480 nM | TGI (EKVX NSCLC): 3260 nM | GI50 (T-47D breast): 196 nM | TGI (T-47D breast): 1750 nM | GI50 (OVCAR-3 ovarian): 377 nM | TGI (OVCAR-3 ovarian): 11000 nM | GI50 (NCI-H460 lung): 486 nM | TGI (NCI-H460 lung): 2490 nM | GI50 (CCRF-CEM leukemia): 361 nM | TGI (CCRF-CEM leukemia): > 100000 nM | GI50 (OVCAR-5 ovarian): 479 nM | TGI (OVCAR-5 ovarian): 3930 nM | GI50 (OVCAR-8 ovarian): 300 nM | TGI (OVCAR-8 ovarian): 13500 nM | GI50 (OVCAR-4 ovarian): 706 nM | TGI (OVCAR-4 ovarian): 6380 nM | GI50 (SK-MEL-2 melanoma): 247 nM | TGI (SK-MEL-2 melanoma): 792 nM | GI50 (SW-620 colon): 245 nM | TGI (SW-620 colon): > 77900 nM | GI50 (SR leukemia): 117 nM | GI50 (SF-539 CNS): 168 nM | TGI (SF-539 CNS): 455 nM | GI50 (MDA-MB-435): 340 nM | TGI (MDA-MB-435): 1490 nM | GI50 (MCF7 breast): 344 nM | TGI (MCF7 breast): 3570 nM | GI50 (UACC-257 melanoma): 1290 nM | TGI (UACC-257 melanoma): > 23200 nM | GI50 (MDA-MB-468 breast): 97.9 nM | TGI (MDA-MB-468 breast): 279 nM | GI50 (ACHN renal): 193 nM | TGI (ACHN renal): 5960 nM | GI50 (RXF 393 renal): 103 nM | TGI (RXF 393 renal): 508 nM | GI50 (NCI-H23 lung): 316 nM | TGI (NCI-H23 lung): 1180 nM | GI50 (NCI/ADR-RES ovarian): 1030 nM | TGI (NCI/ADR-RES ovarian): 21000 nM | GI50 (786-0 renal): 307 nM | TGI (786-0 renal): 1210 nM | GI50 (HT29 colon): 455 nM | TGI (HT29 colon): 9840 nM | GI50 (NCI-H226 lung): 296 nM | TGI (NCI-H226 lung): 3090 nM | GI50 (SK-MEL-28 melanoma): 299 nM | TGI (SK-MEL-28 melanoma): 1030 nM | GI50 (IGROV1 ovarian): 318 nM | TGI (IGROV1 ovarian): 3110 nM | GI50 (TK-10 renal): 261 nM | TGI (TK-10 renal): 10400 nM | GI50 (COLO 205 colon): 255 nM | TGI (COLO 205 colon): 1480 nM | GI50 (SN12C renal): 281 nM | TGI (SN12C renal): 3390 nM | GI50 (HCC-2998 colon): 300 nM | TGI (HCC-2998 colon): 1390 nM | GI50 (SK-MEL-5 melanoma): 240 nM | TGI (SK-MEL-5 melanoma): 1020 nM | GI50 (MALME-3M melanoma): 513 nM | TGI (MALME-3M melanoma): 1730 nM | GI50 (NCI-H522 lung): 154 nM | TGI (NCI-H522 lung): 990 nM | GI50 (U251 CNS): 287 nM | TGI (U251 CNS): 4970 nM | GI50 (A498 renal): 254 nM | TGI (A498 renal): 2640 nM | GI50 (HCT-116 colon): 119 nM | TGI (HCT-116 colon): 33800 nM | GI50 (MOLT-4 leukemia): 244 nM | TGI (MOLT-4 leukemia): 942 nM | GI50 (PC-3 prostate): 424 nM | TGI (PC-3 prostate): > 67200 nM | GI50 (DU-145 prostate): 407 nM | TGI (DU-145 prostate): > 34900 nM | GI50 (SNB-75 CNS): 207 nM | TGI (SNB-75 CNS): 875 nM | GI50 (BT-549 breast): 187 nM | TGI (BT-549 breast): 680 nM
